# Data: article PMC10794137, “A new antibiotic traps lipopolysaccharide in its intermembrane transporter” (Nature, 2024)
# Values joined by “and” are separate entries in the source; they are usually repeats but may differ in a detail not shown here. Equal entries are not always repeated. Where two headings read alike, the source gives them in different places.
# Assays:
# [1] = tested on: Acinetobacter baylyi ADP1 wild type; assay: microbe, parasite or virus in culture; type: cell-based; conditions: A. baylyi wild type
# Protocol: (§1) Culture, genetic manipulation and MIC measurements of A. baylyi ADP1 were conducted according to previously reported procedures[46],[51]. Point mutants were constructed in a two-step procedure following ref. [52] with the introduction and excision of the integration cassette at codon 66 of pepA, wherein the excising fragment of otherwise wild-type chromosomal DNA sequence from codon 406 of pepA to codon 193 of lptG bore the desired mutation and the resulting clones were screened by amplicon sequencing from codon 81 of HolC to codon 501 of GpmI, whereas lpxM deletion was achieved following the same procedure except that the integration cassette insertion and excision removed codons 79–279 of lpxM to avoid interference with neighbouring and overlapping genes that a larger deletion may risk and replaced codon 78 with an ochre stop codon to prevent a readthrough resulting in an aberrant fusion, with the excising fragment sequence spanning from codon 211 of sppA to codon 497 of ComA and verified by amplicon sequencing from codon 94 of MhpC to codon 327 of ComA as well as by absence of a PCR product corresponding to a region spanning codons 79 to 279 of lpxM to check for duplications. A deletion of the lon protease was made in the same manner to produce the stain used for expression and purification of LptB2FG to mimic the BL21 strain of E. coli used in the rest of purifications, for which the region encompassing 72 base pairs (bp) upstream of the lon start codon and 1 bp downstream of the lon stop codon was excised after being replaced with the same integration cassette, yielding a markerless deletion, with the excising fragment sequence spanning from codon 491 of ArnT to codon 40 of 45_DOPA_Dioxygenase and verified by amplicon sequencing spanning from codon 322 of ArnT to codon 221 of 45_DOPA_Dioxygenase as well as by absence of a PCR product corresponding to a region spanning from codons 328 to 768 of lon to check for duplications. Following amplicon confirmation, three validated isolates of each constructed mutant were tested for susceptibility to a panel of antibiotics with […] known mechanisms of action as a further validation step to ensure congruence of phenotypes across replicates, which was confirmed in all cases and one of the validated replicates was later used for MIC measurements reported here.
# (§2) MIC determinations were performed by broth microdilution in line with CLSI guidelines (CLSI M07-A11 2018). Bacterial inocula were prepared by diluting overnight liquid cultures in LB. Antibacterial panels containing antibacterial solutions were inoculated with an appropriate volume of inoculum to give a final inoculum of about 5 × 10^5 c.f.u. ml^−1 and desired test concentrations of antibacterial agents in standard 96-well plates with 0.1 ml of culture per well. The test plates were incubated for 20–24 h and optical density (OD600) was recorded using a plate reader. MIC values corresponded to the lowest compound concentration inhibiting bacterial growth beyond which OD ceased to decrease.
# [2] = tested on: Acinetobacter baylyi ΔlpxM; assay: MIC by broth microdilution, A. baylyi ΔlpxM; type: cell-based
# Protocol: as §1, §2
# [3] = molecular target: His-tagged LptB2FG (ablLptB2FG) (Acinetobacter baylyi, UniProt Q6FFD6+Q6FFD7); assay: Radioligand binding SPA, LptB2FG
# Protocol: The binding of radioligand [^3H]-RO7223280 to ablLptB2FG and ablLptB2FGC was measured by bead-based SPA. All steps were performed in SEC buffer (20 mM Tris pH 7.5, 300 mM NaCl, 5% glycerol, 0.5 mM TCEP, 0.05% DDM ± 10 µM E.coli J5 LPS(Rc) [sequence] (Enzo Life Sciences)) and at 4 °C unless otherwise indicated. Purified protein was first incubated with Copper PVT HIS-tag beads (Perkin Elmer) for 1.5 h under gentle rotation. Twelve radioligand concentrations were added to the PVT–protein mix and incubated for another 30 min. […] The SPA plates were sealed (TopSeal, Perkin Elmer) and stored at 4 °C overnight. Before the measurement, plates were mixed on a shaker for 20 min, 750 rpm at room temperature and the seal was thoroughly wiped with antistatic spray to reduce electrostatic events. Scintillation data were recorded with a Topcount NXT C384, in the form of three independent replicates each consisting of three technical triplicates. Specific binding was calculated by subtracting non-specific binding raw counts from total binding raw counts. The dissociation constant Kd and standard deviation of the three independent replicates are reported and were calculated by the GraphPad Prism ‘One site – specific binding’ tool.
# [4] = tested on: His-tagged LptB2FGC (ablLptB2FGC); conditions: SPA
# Protocol: The binding of radioligand [^3H]-RO7223280 to ablLptB2FG and ablLptB2FGC was measured by bead-based SPA. All steps were performed in SEC buffer (20 mM Tris pH 7.5, 300 mM NaCl, 5% glycerol, 0.5 mM TCEP, 0.05% DDM ± 10 µM E.coli J5 LPS(Rc) […] (Enzo Life Sciences)) and at 4 °C unless otherwise indicated. Purified protein was first incubated with Copper PVT HIS-tag beads (Perkin Elmer) for 1.5 h under gentle rotation. Twelve radioligand concentrations were added to the PVT–protein mix and incubated for another 30 min. […] The SPA plates were sealed (TopSeal, Perkin Elmer) and stored at 4 °C overnight. Before the measurement, plates were mixed on a shaker for 20 min, 750 rpm at room temperature and the seal was thoroughly wiped with antistatic spray to reduce electrostatic events. Scintillation data were recorded with a Topcount NXT C384, in the form of three independent replicates each consisting of three technical triplicates. Specific binding was calculated by subtracting non-specific binding raw counts from total binding raw counts. The dissociation constant Kd and standard deviation of the three independent replicates are reported and were calculated by the GraphPad Prism ‘One site – specific binding’ tool.
# [5] = Acinetobacter baylyi, ADP1WILDTYPE, read-out: MIC
# His-tagged LptB2FG (ablLptB2FG), sequence (Q6FFD7 1-366): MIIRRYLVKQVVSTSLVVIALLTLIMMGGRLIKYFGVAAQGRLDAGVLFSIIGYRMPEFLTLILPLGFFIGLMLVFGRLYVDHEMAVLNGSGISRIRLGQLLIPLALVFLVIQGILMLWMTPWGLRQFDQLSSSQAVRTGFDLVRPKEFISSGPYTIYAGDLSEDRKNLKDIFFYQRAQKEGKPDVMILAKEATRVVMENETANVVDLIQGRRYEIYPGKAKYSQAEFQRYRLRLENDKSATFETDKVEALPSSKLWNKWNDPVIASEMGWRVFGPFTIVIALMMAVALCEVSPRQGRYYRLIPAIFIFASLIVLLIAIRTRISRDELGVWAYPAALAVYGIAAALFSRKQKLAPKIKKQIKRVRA
# His-tagged LptB2FG (ablLptB2FG), sequence (Q6FFD6 1-356): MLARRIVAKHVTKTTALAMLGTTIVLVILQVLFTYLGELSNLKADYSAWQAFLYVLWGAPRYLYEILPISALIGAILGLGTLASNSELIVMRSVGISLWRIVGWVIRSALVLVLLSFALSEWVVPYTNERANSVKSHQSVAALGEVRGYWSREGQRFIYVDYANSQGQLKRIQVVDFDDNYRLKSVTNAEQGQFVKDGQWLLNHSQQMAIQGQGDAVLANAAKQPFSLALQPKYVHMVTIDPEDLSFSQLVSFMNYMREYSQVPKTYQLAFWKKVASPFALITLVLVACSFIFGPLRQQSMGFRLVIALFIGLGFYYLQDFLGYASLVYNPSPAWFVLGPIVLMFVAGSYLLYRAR
# His-tagged LptB2FG (ablLptB2FG), sequence (Q6FC66 1-249 partner): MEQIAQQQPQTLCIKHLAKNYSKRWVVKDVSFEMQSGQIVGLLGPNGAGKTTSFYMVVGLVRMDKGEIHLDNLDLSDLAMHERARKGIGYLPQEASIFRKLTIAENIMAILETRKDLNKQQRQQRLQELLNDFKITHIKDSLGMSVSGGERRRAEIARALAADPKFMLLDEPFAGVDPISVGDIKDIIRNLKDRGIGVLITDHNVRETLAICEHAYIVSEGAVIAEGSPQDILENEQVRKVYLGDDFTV
Compound,"MIC [1, 5]",MIC ([2]; Acinetobacter baylyi),other results
Bacitracin,–,–,MIC [1]: 700 µg/mL; MIC ([1]; read-out: MIC): 500 µM; MIC ([2]; A. baylyi ΔlpxM): 20 µM and 30 µg/mL
CO[C@H]1[C@H](OC(=O)c2ccc(C)[nH]2)[C@H](O)[C@@H](Oc2ccc3c(O)c(NC(=O)c4c[nH]c(C(=O)Nc5c(O)c6ccc(O[C@H]7OC(C)(C)[C@@H](OC)[C@H](OC(=O)c8ccc(C)[nH]8)[C@@H]7O)c(C)c6oc5=O)c4C)c(=O)oc3c2C)OC1(C)C [Coumermycin A1],5 µM and 6 µg/mL,0.16 µM and 0.18 µg/mL,–
CO[C@@H]1[C@@H](OC(N)=O)[C@@H](O)[C@H](Oc2ccc3c(O)c(NC(=O)c4ccc(O)c(CC=C(C)C)c4)c(=O)oc3c2C)OC1(C)C [Novobiocin],4 µM and 2 µg/mL,0.6 µM and 0.4 µg/mL,–
CO[C@H]1/C=C/O[C@@]2(C)Oc3c(C)c(O)c4c(O)c(c(/C=N/N5CCN(C)CC5)c(O)c4c3C2=O)NC(=O)/C(C)=C\C=C\[C@H](C)[C@H](O)[C@@H](C)[C@@H](O)[C@@H](C)[C@H](OC(C)=O)[C@@H]1C [Rifampicin],1.6 µM and 1.3 µg/mL,0.6 µM and 0.5 µg/mL,–
CN[C@H](CC(C)C)C(=O)N[C@H]1C(=O)N[C@@H](CC(N)=O)C(=O)N[C@H]2C(=O)N[C@H]3C(=O)N[C@H](C(=O)N[C@H](C(=O)O)c4cc(O)cc(O)c4-c4cc3ccc4O)[C@H](O)c3ccc(c(Cl)c3)Oc3cc2cc(c3O[C@@H]2O[C@H](CO)[C@@H](O)[C@H](O)[C@H]2O[C@H]2C[C@](C)(N)[C@H](O)[C@H](C)O2)Oc2ccc(cc2Cl)[C@H]1O [Vancomycin],500 µM and 700 µg/mL,17 µM and 25 µg/mL,–
Oc1cc(Cl)ccc1Oc1ccc(Cl)cc1Cl [Triclosan],0.126 µM and 0.036 µg/mL,0.03 µM and 0.009 µg/mL,–
CN1C(=O)[C@H](CCCCN)NC(=O)[C@H](CCCN)NCc2cccnc2Sc2cccc(-c3ccc(C(=O)O)cc3)c2CNC(=O)[C@@H]1Cc1c[nH]c2ccccc12 [[^3H]-RO7223280],–,–,Binding of radiolabelled 2 to LptB2FG ([3]; binding dependent on presence of LPS): bound to LptB2FG; Kd ([3]; used as constraint for Ki fit): 86 nM; Binding of radiolabelled 2 to LptB2FGC [4]: not LptB2FGC
